Results as given in PMC5573760 (Cancer Chemotherapy and Pharmacology, 2017).

What was measured:
[1] = Mass balance: excretion of radioactivity, copanlisib and metabolites in urine and feces; type: in vivo, human; conditions: 6 subjects; for Amount excreted in feces as this component, arithmetic mean (range) / Amount excreted in urine as this component, arithmetic mean (range): HPLC with off-line radioactivity detection; for Amount of dose recovered as this component in urine and feces combined: urine plus feces
Procedure: After pooling and homogenization of urine and feces samples per time interval, aliquots were stored at −20 °C for total radioactivity determination and at −70°C for metabolic profiling (including blood/plasma samples). For determination of total radioactivity, samples were analyzed with a Perkin Elmer Tri-Carb™ 3100 TR liquid scintillation analyzer (Perkin Elmer, Waltham, MA, USA) with quenching correction. For metabolite profiling, plasma samples were treated with a mixture of acetonitrile (ACN) +0.2% acetic acid, after shaking and centrifugation, the supernatant was concentrated. Urine and feces samples were treated with solid-phase extraction (Waters HLB 30 mg, 1 mL, Waters, Milford, MA, USA) and liquid–liquid extraction (ACN + 0.2% trifluoroacetic acid/water, 80:20 volume/volume), respectively. Subsequently samples from plasma, urine and feces were analyzed by HPLC-LSC on Synergi Polar 4 µm 150 × 2 mm (Phenomenex, Aschaffenburg, Germany) with off-line radioactivity detection by Microbeta^2™ Plus liquid scintillation counter with Ultima Flo™ AP scintillation fluid (Packard Instrument BV, Groningen, The Netherlands).
Metabolite patterns in plasma, urine and feces were studied by the HPLC method with off-line radioactivity detection described above.
A similar approach has been described earlier.

[2] = clinical; conditions: for Tmax: male, human, in vivo, iv, t max
Procedure: All subjects gave written informed consent; the study was conducted at PRA Health Sciences (Zuidlaren, The Netherlands) in accordance with the Declaration of Helsinki and was approved by an accredited institutional ethics committee (Medisch Ethische Toetsings Commissie, Assen, The Netherlands).
Subjects remained fasting until 2-h after the end of the infusion. Volunteers stayed in-house until 14 days after the application and subsequently urine and feces were collected for 24-h on Day 16, 20, 27 and 34 if necessary, cf. below.
Urine was collected pre-dose, at 0–12-h and 12–24 h after the start of the infusion and thereafter over 24-h intervals on Day 2 to Day 14 as well as on Day 16, 20, 27 and 34 (±1 day). Cumulative 24-h fecal samples were collected from Day 1 (day of infusion) to Day 14 and as well as on Day 16, 20, 27 and 34 (±1 day). […] The excreted radioactivity between ambulant visits during the prolongation phase of the clinical study was calculated using interpolation to get a more realistic total excretion value of all subjects (see "Pharmacokinetic analysis").
All samples were frozen at −70 °C and analyzed within 60 days of sample collection.
For blood/plasma ratio determination, total radioactivity in urine and feces well as data from HPLC analysis data from radioactivity measurement by liquid scintillation counting (LSC) were considered. The amount of radioactivity recovered in the excreta (A E) was related to the administered radioactive dose to establish the radioactive balance. Arithmetic means and coefficients of variation (CV) were calculated for these percentages. […] Cumulative excretion was calculated as sum of the collection intervals. The elimination of the total radioactivity in urine and feces for time-points beyond day 14 was performed by log-linear extrapolation between analyzed time-points. Amounts of radioactivity excreted in urine and feces between two ambulant visits were calculated per interpolated day by linear interpolation of log-transformed excretion data separately per matrix (lnA E(interpolated day) = Δdays × [lnA E(Visit i + 1) − lnA E(Visit i)]/[day (Visit i + 1) − day (Visit i)] + lnA E(Visit i), with A E given as amount of radioactivity excreted in matrix per day and Δdays being the difference between the calculated day and the last available visit with A E > 0). In case no feces sample was provided on an ambulant visit, this visit was neglected for interpolation. A similar approach has been described earlier. The concentration/amount for each component of each sample/time-point was calculated by multiplying the total radioactivity concentration/amount of each sample with %-area of each component obtained after off-line HPLC separation. The amount of radioactivity in urine and feces at late time-points where no component was detected was distributed in the same percentage to the component (s) present at the time-point before.
Compartment-free analysis was performed employing WinNonlin software (version 5.3, Pharsight Certara, Princton, NJ, USA).
Pharmacokinetic parameters were evaluated by descriptive data analysis without formal hypothesis testing by calculating either medians (t max, t last) or geometric means and %CV (remaining parameters). Excretion data (urine, feces, total) were evaluated by arithmetic means.

[3] = tested on: clinical target (PI3K); set-up: method as in Bayer AG, data on file; conditions: ref Bayer AG, data on file; cited from earlier work

| Amount excreted in feces as this component, arithmetic mean (range) [1] | Amount excreted in urine as this component, arithmetic mean (range) [1] | Amount of dose recovered as this component in urine and feces combined [1] | Compound | Tmax ([2]; median) [h] | Tmax ([2]; range) [h] | Range of AUC (0–t last) (LC–MS) ([2]; plasma, t last defined by the time-point with detectable radioactivity, range of 6 subjects) | Affinity to the clinical target relative to parent compound [3] |
| --- | --- | --- | --- | --- | --- | --- | --- |
|  |  | < 2 % of dose | COc1c(OCCCO)ccc2c1N=C(NC(=O)c1cnc(N)nc1)N1CCN=C21 [M15] |  |  |  |  |
| 11.8 (9.91–13.0) % of dose | 0.34 (0.10–0.52) % of dose |  | COc1c(OCCC(=O)O)ccc2c1N=C(NC(=O)c1cnc(N)nc1)N1CCN=C21 [M2] |  |  |  |  |
| 5.61 (1.74–9.53) % of dose | 0.15 (0.04–0.32) % of dose |  | COc1c(O)ccc2c1N=C(NC(=O)c1cnc(N)nc1)N1CCN=C21 [M4] |  |  |  |  |

Second part, the compound before the results:

| Compound | Amount excreted in feces as this component, arithmetic mean (range) [1] | Amount excreted in urine as this component, arithmetic mean (range) [1] | Amount of dose recovered as this component in urine and feces combined [1] | Tmax ([2]; median) [h] | Tmax ([2]; range) [h] | Range of AUC (0–t last) (LC–MS) ([2]; plasma, t last defined by the time-point with detectable radioactivity, range of 6 subjects) | Affinity to the clinical target relative to parent compound [3] |
| --- | --- | --- | --- | --- | --- | --- | --- |
| COc1c(OCCCNCCO)ccc2c1N=C(NC(=O)c1cnc(N)nc1)N1CCN=C21 [M3] | 7.32 (5.61–11.6) % of dose | 0.32 (0–0.62) % of dose |  |  |  |  |  |
| COc1c(OCCCN(C=O)CCO)ccc2c1N=C(NC(=O)c1cnc(N)nc1)N1CCN=C21 [M21] |  |  | < 2 % of dose |  |  |  |  |
| COc1c(OCCCN2CCOCC2=O)ccc2c1N=C(NC(=O)c1cnc(N)nc1)N1CCN=C21 [M1] | 6.39 (4.34–8.66) % of dose | 4.47 (2.53–6.79) % of dose | 11.1 % of dose | 6 | 3 to 10 | 4.36–37.8 ng-Eq·h/mL | same order of magnitude as found for the parent compound |
